The text below walks through data of ChEMBL document CHEMBL1159143, “Benzofuran based non-peptide antagonists of angiotensin II related to GR117289: part IV; imidazopyridinylbenzofurans” (Bioorg Med Chem Lett, 1994).

As a reminder, the pKB is −log10 of the KB, conventionally taken in molar units. The term half-life denotes how long it takes for the measured level to halve. In general, Vd refers to the apparent volume that relates the amount in the body to the concentration in plasma or blood.

Series [1] deals with Type-1 angiotensin II receptor (Oryctolagus cuniculus). The series is described as follows: In vitro inhibitory activity against Angiotensin II receptor in rabbit aorta was evaluated.
Series [2] is described as follows: Compound was tested for plasma clearance in rats. Particulars: rat, read-out: Clp. The class given is ADME, organism-based.
A short description of series [3]: Compound was tested for plasma half-life period in rat. It is filed as ADME, organism-based.
Series [4] in a line: Volume distribution in rat. The class given is ADME, organism-based. Particulars: in vivo.
Series [5] can be described thus: Oral bioavailability in rat. The class given is ADME, organism-based. Particulars: in vivo.

The compound `CCc1nc2c(C)ccnc2n1Cc1ccc2oc(-c3ccccc3NS(=O)(=O)C(F)(F)F)c(Br)c2c1` came in with a pKB in series [1] of 8.3.
`CCc1nc2c(C)cc(C(=O)O)nc2n1Cc1ccc2oc(-c3ccccc3NS(=O)(=O)C(F)(F)F)c(Br)c2c1` had a pKB in series [1] of 9.3.
For `CCc1nc2c(C)cc(CO)nc2n1Cc1ccc2oc(-c3ccccc3NS(=O)(=O)C(F)(F)F)c(Br)c2c1`, the clearance in series [2] stood at 4.8 mL/min/kg. In series [1], this compound showed a pKB of 8.6. Besides, in series [3], the half-life was 5.7 h. This compound also came in with a Vd in series [4] of 2.4 L/kg. The bioavailability in series [5] was found to be 115%.
Take `CCc1nc2c(C)cc(C)nc2n1Cc1ccc2oc(-c3ccccc3NS(=O)(=O)C(F)(F)F)c(Br)c2c1`: in series [2], the clearance is 5.49 mL/min/kg. The same compound had a pKB in series [1] of 9.3. Besides, in series [3], the half-life is 2.8 h. This compound registered a Vd in series [4] of 1.33 L/kg. In series [5], the bioavailability came out at 70%.
